Measured values published in patent publication EP4364726A1, “METHOD FOR TREATING A CANCER AND/OR CANCER METASTASIS” (Nano Targeting & Therapy Biopharma Inc., priority 2022, dated 2024).

What was measured:
[1] = system: chicken embryo chorioallantoic membrane (CAM) tumor model; assay: Chorioallantoic membrane (CAM) analysis for angiogenesis; type: in vivo; settings: administered on day 12, observed days 14 and 16
Procedure: To evaluate the effect of MSNs on tumor angiogenesis, chicken embryo chorioallantoic membrane (CAM) tumor model was used. The fertilized eggs were incubated in the incubator for 10 days, then a small window was opened in the eggshell and the cancer cells were implanted on the CAM membrane near the aorta. MSN or Doxorubicin (DOX) was administered on day 12 when the tumor was formed and the angiogenesis near the tumor was observed on days 14 and 16.

[2] = system: luciferase-expressing HCT-116 cells; assay: Orthotopic colorectal cancer metastasis model (cells injected into cecum wall); type: in vivo, mice; settings: orthotopic HCT-116-luc, 40 mg/kg twice per week, 8 administrations
Procedure: 2×10^6 luciferase-expressing HCT-116 cells were directly injected into the wall of the cecum with surgery to establish the orthotopic colorectal cancer metastasis model, this model spontaneously produces highly metastatic tumors in adjacent intestinal tissues, peritoneum, and distance metastasis (spleen, kidney, liver, and diaphragm). Tumor-bearing mice received IRI and IRI@NTT2_186k at dose levels of 40 mg/kg twice per week for a total of 8 administrations. The tumor growth and metastasis were observed by the IVIS system once a week and body weight was observed over the study period. To assess overall survival, animals were monitored up to the point of spontaneous death or approaching moribund status.

[3] = cited from earlier work

| Structure (SMILES) | blood vessels near the tumor [1] | tumor course once treatment was discontinued [2] | tumor growth rate [2] | inhibition of primary tumor growth and metastases ([2]; IVIS) | pka [3] |
| --- | --- | --- | --- | --- | --- |
| COc1cccc2c1C(=O)c1c(O)c3c(c(O)c1C2=O)C[C@@](O)(C(=O)CO)C[C@@H]3O[C@H]1C[C@H](N)[C@H](O)[C@H](C)O1 [DOX, Doxorubicin] | blood vessels exhibited disintegration and decreased density |  |  |  |  |
| CCc1c2c(nc3ccc(OC(=O)N4CCC(N5CCCCC5)CC4)cc13)-c1cc3c(c(=O)n1C2)COC(=O)[C@]3(O)CC [IRI, irinotecan] |  | tumor relapse and tumor metastases were observed | slower tumor growth rate compared to the control group | inefficient inhibition of tumor growth and metastases | about 10.9 |
